Patent US9284333B2, “Fused pyrroledicarboxamides and their use as pharmaceuticals” (SANOFI, priority 2012, dated 2016)

molecular target: Human TASK-1 channels (Homo sapiens (Human), UniProt O14649); test: Determination of the activity on the TASK-1 channel in Xenopus oocytes (two-microelectrode voltage clamp); type: cell-based; details: compound concentration 5 μM
Outline: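 Current during 500 ms pulses to 40 mV from a −90 mV hold was recorded in oocytes expressing human TASK-1 for two days after cRNA injection. Compounds were added cumulatively to the ND96 bath (pH 7.4, room temperature). IC50 came from dose-response fitting of inhibition relative to pre-compound current.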

Human TASK-1 channels, sequence (O14649 whole entry): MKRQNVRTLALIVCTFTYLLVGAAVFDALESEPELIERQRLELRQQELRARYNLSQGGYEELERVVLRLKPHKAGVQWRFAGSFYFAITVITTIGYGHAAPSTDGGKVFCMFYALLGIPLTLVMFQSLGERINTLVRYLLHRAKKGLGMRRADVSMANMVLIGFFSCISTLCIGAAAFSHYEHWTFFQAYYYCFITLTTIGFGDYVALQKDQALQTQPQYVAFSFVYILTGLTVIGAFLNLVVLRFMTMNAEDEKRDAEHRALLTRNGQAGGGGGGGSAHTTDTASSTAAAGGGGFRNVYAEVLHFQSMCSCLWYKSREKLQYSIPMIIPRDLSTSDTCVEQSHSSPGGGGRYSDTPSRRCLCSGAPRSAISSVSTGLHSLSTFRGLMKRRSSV

Row | inhibition at 5 µM | Structure (SMILES)
1 | 90% | CC[C@H](NC(=O)c1cc(C(=O)N[C@H](CC)c2ccc(C(F)(F)F)nc2)c2n1CCOC2)c1ccccc1 [16kf, 3,4-Dihydro-1H-pyrrolo[2,1-c][1,4]oxazine-6,8-dicarboxylic acid 6-[((S)-1-phenyl-propyl)-amide] 8-{[(R)-1-(6-trifluoromethyl-pyridin-3-yl)-propyl]-amide}]
2 | 55% | CC[C@@H](NC(=O)c1cc(C(=O)NCC2(c3ccccc3)CCCC2)n2c1CCCC2)c1ccccc1 [16ng, 5,6,7,8-Tetrahydro-indolizine-1,3-dicarboxylic acid 3-[(1-phenyl-cyclopentylmethyl)-amide] 1-[((R)-1-phenyl-propyl)-amide]]
3 | 87% | C[C@@H](NC(=O)c1cc(C(=O)N2CCC[C@@H]2C)n2c1COCC2)c1ccc(Cl)cc1 [16as, 6-((S)-2-Methyl-pyrrolidine-1-carbonyl)-3,4-dihydro-1H-pyrrolo[2,1-c][1,4]oxazine-8-carboxylic acid [(R)-1-(4-chloro-phenyl)-ethyl]-amide]
4 | 90% | CC[C@H](NC(=O)c1cc(C(=O)N2CCC[C@@H]2C)n2c1COCC2)c1ccc(F)c(C(F)(F)F)c1 [16bp]

same assay, conditions: human TASK-1 expressed in Xenopus oocytes, room temperature; read-out: IC50 value for TASK-1 inhibition

Row | Structure (SMILES) | IC50
5 | CC[C@@H](NC(=O)c1cc(C(=O)N(C)Cc2ncccn2)n2c1COCC2)c1ccccc1 [16jc, 3,4-Dihydro-1H-pyrrolo[2,1-c][1,4]oxazine-6,8-dicarboxylic acid 6-(methyl-pyrimidin-2-ylmethyl-amide) 8-[((R)-1-phenyl-propyl)-amide]] | 2.7 µM
6 | CC[C@@H](NC(=O)c1cc(C(=O)NCC(C)C)n2c1COCC2)c1ccccc1 [16gf, 3,4-Dihydro-1H-pyrrolo[2,1-c][1,4]oxazine-6,8-dicarboxylic acid 6-isobutylamide 8-[((R)-1-phenyl-propyl)-amide]] | 0.34 µM
7 | CC[C@@H](NC(=O)c1cc(C(=O)N[C@H](C)c2ccc(F)cc2)n2c1COCC2)c1ncc(C(F)(F)F)cn1 [16ed, 3,4-Dihydro-1H-pyrrolo[2,1-c][1,4]oxazine-6,8-dicarboxylic acid 6-{[(R)-1-(4-fluoro-phenyl)-ethyl]-amide} 8-{[(R)-1-(5-trifluoromethyl-pyrimidin-2-yl)-propyl]-amide}] | 0.3 µM
8 | CC[C@@H](NC(=O)c1cc(C(=O)N2CCC(c3ccccc3)C2)n2c1CCCC2)c1ccccc1 (stereo partly drawn) [16ms, 3-(3-Phenyl-pyrrolidine-1-carbonyl)-5,6,7,8-tetrahydro-indolizine-1-carboxylic acid ((R)-1-phenyl-propyl)-amide] | 0.55 µM
9 | O=C(NC(c1ccccc1)c1ccccc1)c1cc(C(=O)N2CCCC2)n2c1COCC2 [16di, 6-(Pyrrolidine-1-carbonyl)-3,4-dihydro-1H-pyrrolo[2,1-c][1,4]oxazine-8-carboxylic acid benzhydryl-amide] | 1.2 µM
10 | CC[C@@H](NC(=O)c1cc(C(=O)NCc2nc3ccccc3o2)c2n1CCOC2)c1ccccc1 [16js, 3,4-Dihydro-1H-pyrrolo[2,1-c][1,4]oxazine-6,8-dicarboxylic acid 8-[(benzooxazol-2-ylmethyl)-amide] 6-[((R)-1-phenyl-propyl)-amide]] | 0.54 µM
11 | CC[C@@H](NC(=O)c1cc(C(=O)N2CCC[C@@H]2C)n2c1COCC2)c1cc(F)c(C#N)c(F)c1 [16ca, 6-((S)-2-Methyl-pyrrolidine-1-carbonyl)-3,4-dihydro-1H-pyrrolo[2,1-c][1,4]oxazine-8-carboxylic acid [(R)-1-(4-cyano-3,5-difluoro-phenyl)-propyl]-amide] | 0.34 µM
12 | CC[C@@H](NC(=O)c1cc(C(=O)N[C@H](CC)c2cccc(O)n2)n2c1COCC2)c1ccccc1 [16rh, 3,4-Dihydro-1H-pyrrolo[2,1-c][1,4]oxazine-6,8-dicarboxylic acid 6-{[(R)-1-(6-hydroxy-pyridin-2-yl)-propyl]-amide} 8-[((R)-1-phenyl-propyl)-amide]] | 0.24 µM
13 | CC[C@@H](NC(=O)c1cc(C(=O)NCCc2ccccn2)n2c1COCC2)c1ccccc1 [16gm, 3,4-Dihydro-1H-pyrrolo[2,1-c][1,4]oxazine-6,8-dicarboxylic acid 8-[((R)-1-phenyl-propyl)-amide] 6-[(2-pyridin-2-yl-ethyl)-amide]] | 0.49 µM
14 | CCC(NC(=O)c1cc(C(=O)N[C@H](CC)c2ccccc2)c2n1CCOC2)c1cccc(S(N)(=O)=O)c1 (stereo partly drawn) [16ji, 3,4-Dihydro-1H-pyrrolo[2,1-c][1,4]oxazine-6,8-dicarboxylic acid 8-[((R)-1-phenyl-propyl)-amide] 6-{[1-(3-sulfamoyl-phenyl)-propyl]-amide}] | 1.9 µM
15 | CC[C@@H](NC(=O)c1cc(C(=O)NCc2cnco2)c2n1CCCC2)c1ccccc1 [16mc, 5,67,8-Tetrahydro-indolizine-1,3-dicarboxylic acid 1-[(oxazol-5-ylmethyl)-amide] 3-[((R)-1-phenyl-propyl)-amide]] | 0.62 µM
16 | CC[C@@H](NC(=O)c1cc(C(=O)NCC2(O)CC2)n2c1COCC2)c1ccccc1 [16hi, 3,4-Dihydro-1H-pyrrolo[2,1-c][1,4]oxazine-6,8-dicarboxylic acid 6-[(1-hydroxy-cyclopropylmethyl)-amide] 8-[((R)-1-phenyl-propyl)-amide]] | 1.1 µM
17 | CC[C@@H](NC(=O)c1cc(C(=O)N[C@H](CC)c2ccc(C#N)nc2)n2c1COCC2)c1ccccc1 [16ib, 3,4-Dihydro-1H-pyrrolo[2,1-c][1,4]oxazine-6,8-dicarboxylic acid 6-{[(R)-1-(6-cyano-pyridin-3-yl)-propyl]-amide} 8-[((R)-1-phenyl-propyl)-amide]] | 1 µM
18 | CC[C@@H](NC(=O)c1cc(C(=O)Nc2c(C)noc2C)n2c1CCCC2)c1ccccc1 [16nd, 5,6,7,8-Tetrahydro-indolizine-1,3-dicarboxylic acid 3-[(3,5-dimethyl-isoxazol-4-yl)-amide] 1-[((R)-1-phenyl-propyl)-amide]] | 0.21 µM
19 | CC[C@@H](NC(=O)c1cc(C(=O)N2CCC[C@@H]2C)n2c1COCC2)c1ccc(C(F)(F)F)cc1F [16ct, 6-((S)-2-Methyl-pyrrolidine-1-carbonyl)-3,4-dihydro-1H-pyrrolo[2,1-c][1,4]oxazine-8-carboxylic acid [(R)-1-(2-fluoro-4-trifluoromethyl-phenyl)-propyl]-amide] | 0.21 µM
20 | CC[C@@H](NC(=O)c1cc(C(=O)N2CCC[C@@H]2CNC(C)=O)n2c1COCC2)c1ccccc1 [16fh, 6-[(R)-2-(Acetylamino-methyl)-pyrrolidine-1-carbonyl]-3,4-dihydro-1H-pyrrolo[2,1-c][1,4]oxazine-8-carboxylic acid ((R)-1-phenyl-propyl)-amide] | 5.2 µM
21 | CC[C@@H](NC(=O)c1cc(C(=O)N2CCC[C@H]2C(C)C)c2n1CCOC2)c1ccccc1 [16km, 8-((S)-2-Isopropyl-pyrrolidine-1-carbonyl)-3,4-dihydro-1H-pyrrolo[2,1-c][1,4]oxazine-6-carboxylic acid ((R)-1-phenyl-propyl)-amide] | 0.39 µM

More lines, now with the values ahead:

Row | IC50 | Structure (SMILES)
22 | 0.11 µM | CC[C@@H](NC(=O)c1cc(C(=O)N2CCC[C@@H]2C)n2c1C(C)OCC2)c1ccccc1 (stereo partly drawn) [16lf, 1-Methyl-6-((S)-2-methyl-pyrrolidine-1-carbonyl)-3,4-dihydro-1H-pyrrolo[2,1-c][1,4]oxazine-8-carboxylic acid ((R)-1-phenyl-propyl)-amide]
23 | 0.048 µM | CC[C@@H](NC(=O)c1cc(C(=O)N[C@H](C)c2ccc(F)cc2)n2c1COCC2)c1cnc(OC)cn1 [16dw, 3,4-Dihydro-1H-pyrrolo[2,1-c][1,4]oxazine-6,8-dicarboxylic acid 6-{[(R)-1-(4-fluoro-phenyl)-ethyl]-amide} 8-{[(R)-1-(5-methoxy-pyrazin-2-yl)-propyl]-amide}]
24 | 0.11 µM | CC[C@@H](NC(=O)c1cc(C(=O)N2CCC[C@@H]2C)n2c1COCC2)c1ccc(F)cc1F [16v, 6-((S)-2-Methyl-pyrrolidine-1-carbonyl)-3,4-dihydro-1H-pyrrolo[2,1-c][1,4]oxazine-8-carboxylic acid [(R)-1-(2,4-difluoro-phenyl)-propyl]-amide]
25 | 0.19 µM | CC[C@@H](NC(=O)c1cc(C(=O)NC(C)c2cnccn2)c2n1CCOC2)c1ccc(F)cc1F (single isomer, unassigned) [16pk]
26 | 0.15 µM | CC[C@@H](NC(=O)c1cc(C(=O)N2CC3CC3C2)n2c1COCC2)c1ccccc1 (stereo partly drawn) [16fe, 6-(3-Aza-bicyclo[3.1.0]hexane-3-carbonyl)-3,4-dihydro-1H-pyrrolo[2,1-c][1,4]oxazine-8-carboxylic acid ((R)-1-phenyl-propyl)-amide]
27 | 0.12 µM | CC[C@@H](NC(=O)c1cc(C(=O)N(C)CC(=O)OC(C)C)n2c1COCC2)c1ccccc1 [16iu, {Methyl-[8-((R)-1-phenyl-propylcarbamoyl)-3,4-dihydro-1H-pyrrolo[2,1-c][1,4]oxazine-6-carbonyl]-amino}-acetic acid isopropyl ester]
28 | 0.049 µM | CC[C@@H](NC(=O)c1cc(C(=O)N2CCC[C@@H]2C)n2c1COCC2)c1ccc(F)cc1Cl [16u, 6-((S)-2-Methyl-pyrrolidine-1-carbonyl)-3,4-dihydro-1H-pyrrolo[2,1-c][1,4]oxazine-8-carboxylic acid [(R)-1-(2-chloro-4-fluoro-phenyl)-propyl]-amide]
29 | 0.065 µM | CC[C@@H](NC(=O)c1cc(C(=O)N[C@H](CC)c2ncccn2)c2n1CCOC2)c1ccc(C(F)(F)F)cc1 [16lb, 3,4-Dihydro-1H-pyrrolo[2,1-c][1,4]oxazine-6,8-dicarboxylic acid 8-[((R)-1-pyrimidin-2-yl-propyl)-amide] 6-{[(R)-1-(4-trifluoromethyl-phenyl)-propyl]-amide}]
30 | 0.03 µM | CC[C@@H](NC(=O)c1cc(C(=O)N2CCC[C@@H]2C)n2c1COCC2)c1ccc(Cl)c(Cl)c1 [16ci, 6-((S)-Methyl-pyrrolidine-1-carbonyl)-3,4-dihydro-1H-pyrrolo[2,1-c][1,4]oxazine-8-carboxylic acid [(R)-1-(3,4-dichloro-phenyl)-propyl]-amide]
